Measured values reported in patent publication US9359298B2, “Cajanine structure analogous compound, preparation method and use” (INSTITUTE OF MEDICINAL BIOTECHNOLOGY, CHINESE ACADEMY OF …, priority 2011, dated 2016).
≈ marks a conversion by molar mass, not a printed value. Like-named read-outs stand apart in the source and are kept apart here.

Columns and labels:
Assay type in all cases: cell-based
HCV = assay: Anti-hepatitis C virus (HCV) activity assay (HCV RNA in Huh7.5 cells); conditions: for EC50: Hepatitis C virus, Huh7.5, 72 h, read-out: HCV EC50; for anti-HCV viral activity: statement in words
Method: Inoculate Huh7.5 cells into 96-well plates to a density of 3×10^4 cells/cm^2, culture for 24h, infect the cells with 45 IU/cell HCV supernatant, meanwhile, add drug solutions or solvent control for treatment.

Coxsackie virus B6 = assay: Coxsackie virus activity assay (CPE in Vero cells); conditions: for IC50: Vero, read-out: COX-B6 IC50, Vero cells, about 100TCID50, CPE, Reed-Muench
PC12 cells [1] = assay: Neuroprotective activity assay, rotenone injury to PC12 cells (MTT); conditions: for viability at 10 µM: Rattus norvegicus, PC-12, 48 h, read-out: rotenone (surviving PC12 cells, MTT 570 nm); for protective effect on rotenone injury to PC12 cells: statement in words
How it was run: (§1)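 PC12 cells on poly-lysine plated 24 h, then injured 48 h by serum-free DMEM or 4 μM rotenone with 10 μM test compound present during injury. Viability read by MTT (4 h), absorbance 570 nm.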

PC12 cells [2] = assay: Neuroprotective activity assay, serum-deprived injury to PC12 cells (MTT); conditions: for viability at 10 µM: Rattus norvegicus, PC-12, 48 h, read-out: serum-deprived (surviving PC12 cells, MTT 570 nm); for protective effect on serum-deprived injury to PC12 cells: statement in words
How it was run: as §1

[3] = test system: Influenza A virus (hanfang359/95); assay: Determination of anti-influenza virus activity (CPE in MDCK cells); conditions: for IC50: Influenza A virus, MDCK, 36 h; for anti-influenza virus activities compared with the lead compound cajanine: statement in words
HIV-1 III B virus = assay: Anti-HIV activity assay (P24 antigen in MT-4 cells); conditions: for IC50: Human immunodeficiency virus 1, MT4, 96 h, read-out: HIV IC50; for anti-HIV viral activity: statement in words
[4] = Huh7.5 cells, 72 h, HCV RNA by RT-PCR, Reed-Muench
[5] = 10 μM test compound, 4 μM rotenone, 48 h, Control 100.0 ± 8.9, Model 73.2 ± 7.8
[6] = 10 μM test compound, 48 h, Control 100.0 ± 9.2, Model 69.3 ± 4.1
[7] = MT-4 cells, HIV-1 III B 100TCID50, 96 h, P24 antigen

Row | Molecule | EC50 (HCV; [4]) [µg/mL] | IC50 (Coxsackie virus B6) [µg/mL] | viability at 10 µM (PC12 cells [1]; [5]) [%] | protective effect on rotenone injury to PC12 cells (PC12 cells [1]) | viability at 10 µM (PC12 cells [2]; [6]) [%] | protective effect on serum-deprived injury to PC12 cells (PC12 cells [2]) | IC50 [3] [µg/mL] | IC50 (HIV-1 III B virus; [7]) [µg/mL] | anti-influenza virus activities compared with the lead compound cajanine [3] | anti-HCV viral activity (HCV) | anti-HIV viral activity (HIV-1 III B virus) | EC50 (HCV) [µg/mL] | HCV EC50 (HCV; [4]) [µg/mL] | COX-B6 IC50 (Coxsackie virus B6) [µg/mL] | rotenone (surviving PC12 cells, MTT 570 nm) (PC12 cells [1]; [5]) | serum-deprived (surviving PC12 cells, MTT 570 nm) (PC12 cells [2]; [6]) | Influenza A virus (hanfang359/95) IC50 [3] [µg/mL] | HIV IC50 (HIV-1 III B virus; [7]) [µg/mL]
1 | COc1cc(/C=C/c2ccccc2)c(C(=O)O)c(OC(=O)c2cnc[nH]2)c1CC=C(C)C [Compound 24q] | 1.54 (≈ 3.56 µM) | 1.35 (≈ 3.12 µM) | 90.5 ± 5.6 | the strongest activities | 92.3 ± 1.2 | the strongest activities | 1.98 (≈ 4.58 µM) | 2.85 (≈ 6.59 µM) |  |  |  |  |  |  |  |  |  | 
2 | COC(=O)c1c(O)cc(OC)c(CC=C(C)C)c1/C=C/c1ccccc1 [Compound 18, methyl 2-hydroxy-4-methoxy-5-isopentenyl-6-[(E)-styryl]benzoate] | 8.51 (≈ 24.1 µM) | > 6.17 | 74.9 ± 2.9 |  | 77.8 ± 6.3 |  | > 18.5 | 0.34 (≈ 0.965 µM) |  |  |  |  |  |  |  |  |  | 
3 | COc1cc(/C=C/c2ccccn2)c(C(=O)O)c(O)c1CC=C(C)C [Compound 1t, 2-hydroxy-3-isopentenyl-4-methoxy-6-[(E)-2-(pyrid-2-yl)ethenyl]benzoic acid] | 1.58 (≈ 4.66 µM) | 0.61 (≈ 1.8 µM) | 84.6 ± 1.2 |  | 85.1 ± 2.1 |  | 0.34 (≈ 1 µM) | 1.07 (≈ 3.15 µM) | significantly stronger than the lead compound cajanine |  |  |  |  |  |  |  |  | 
4 | COc1c(Cl)c(/C=C/c2ccccc2)cc(O)c1CC=C(C)C [Compound 10s, 2-isopentenyl-3-methoxy-4-chloro-5-[(E)-styryl]phenol] | 5.17 (≈ 15.7 µM) | 4.35 (≈ 13.2 µM) | 79.8 ± 3.5 |  | 78.5 ± 6.3 |  | > 6.17 | 2.75 (≈ 8.36 µM) |  |  |  |  |  |  |  |  |  | 
5 | COc1cc(/C=C/c2ccccc2)c(C(N)=O)c(O)c1CC=C(C)C [Compound 32, 2-hydroxy-3-isopentenyl-4-methoxy-6-[(E)-styryl]benzamide] | 1.37 (≈ 4.06 µM) | 0.54 (≈ 1.6 µM) | 92.3 ± 1.2 | the strongest activities | 94.5 ± 2.3 | the strongest activities | 0.21 (≈ 0.622 µM) | 0.16 (≈ 0.474 µM) | significantly stronger than the lead compound cajanine |  |  |  |  |  |  |  |  | 
6 | COc1cc(/C=C/c2cc(O)cc(O)n2)cc(O)c1CC=C(C)C [10e′] | 1.87 (≈ 5.71 µM) | 1.21 (≈ 3.7 µM) | 88.9 ± 2.8 |  | 87.9 ± 4.7 |  | 0.21 (≈ 0.641 µM) | 0.71 (≈ 2.17 µM) |  |  |  |  |  |  |  |  |  | 
7 | COc1cc(/C=C/c2ccccc2)c(C(=O)NC(=N)N)c(O)c1CC=C(C)C [Compound 23b, N-amidino-2-hydroxy-3-isopentenyl-4-methoxy-6-[(E)-styryl]benzamide] | 0.53 (≈ 1.4 µM) | 0.24 (≈ 0.632 µM) | 81.3 ± 5 |  | 79.8 ± 4.6 |  | 0.13 (≈ 0.343 µM) | 3.9 (≈ 10.3 µM) | significantly stronger than the lead compound cajanine | stronger anti-HIV, HCV viral activities | stronger anti-HIV, HCV viral activities |  |  |  |  |  |  | 
8 | COc1cc(/C=C/C2CCCCC2)c(C(=O)O)c(O)c1CC=C(C)C [Compound 1p, 2-hydroxy-3-isopentenyl-4-methoxy-6-[(E)-2-cyclohexyl-vinyl]benzoic acid] |  | > 2.06 | 82 ± 2.3 | the strongest activities | 81.2 ± 3.2 | the strongest activities | 8.62 (≈ 25 µM) | 1.06 (≈ 3.08 µM) |  |  |  | 8.62 (≈ 25 µM) |  |  |  |  |  | 
9 | COc1cc(/C=C/C=C/c2ccccc2)c(C(=O)O)c(O)c1CC=C(C)C [Compound 1m, 2-hydroxy-3-isopentenyl-4-methoxy-6-[(1′E,3′E)-phenylbutadien-1′,3′-yl]benzoic acid] |  | > 2.06 | 74.4 ± 4.4 |  | 21 ± 2.2 |  | 6.17 (≈ 16.9 µM) | 1.07 (≈ 2.94 µM) |  |  |  | 6.17 (≈ 16.9 µM) |  |  |  |  |  | 
10 | COC(=O)c1c(CCc2ccccc2)cc(OC)c(CC=C(C)C)c1O [Compound 36, methyl 2-hydroxy-3-isopentenyl-4-methoxy-6-phenethyl benzoate] | 3.86 (≈ 10.9 µM) | > 2.46 | 72.2 ± 12.2 |  | 41 ± 15.4 |  | > 2.46 | 1.06 (≈ 2.99 µM) |  |  |  |  |  |  |  |  |  | 
11 | COc1cc(/C=C/c2ccccc2)c(C(=O)OCC(O)CO)c(O)c1CC=C(C)C (stereo not drawn) [Compound 9e, 2,3-dihydroxypropyl2-hydroxy-3-isopentenyl-4-methoxy-6-[(E)-styryl]benzoate] | 0.66 (≈ 1.6 µM) | 0.21 (≈ 0.509 µM) | 90.8 ± 4.3 | the strongest activities | 91.3 ± 2.4 | the strongest activities | 0.1 (≈ 0.242 µM) | 0.73 (≈ 1.77 µM) | significantly stronger than the lead compound cajanine | stronger anti-HIV, HCV viral activities | stronger anti-HIV, HCV viral activities |  |  |  |  |  |  | 
12 | COc1cc(/C=C/c2cc(O)ccn2)c(C(=O)O)c(O)c1CC=C(C)C [Compound 1w, 2-hydroxy-3-isopentenyl-4-methoxy-6-[(E)-2-(4-hydroxypyrid-2-yl)ethenyl]benzoic acid] | 2.06 (≈ 5.8 µM) | 0.54 (≈ 1.52 µM) | 88.9 ± 2.5 | the strongest activities | 89.3 ± 5.4 | the strongest activities | 0.19 (≈ 0.535 µM) | 2.87 (≈ 8.08 µM) | significantly stronger than the lead compound cajanine |  |  |  |  |  |  |  |  | 
13 | methyl 2-hydroxy-3-isopentenyl-4-methoxy-6-(4′-methyl-cyclohexylenemethyl)benzoate [Compound 8n] |  |  |  |  |  |  |  |  |  |  |  |  | 1.06 | >6.17 | 78.0 ± 9.2 | 53.7 ± 3.8 | >2.06 | 2.17
14 | COc1cc(/C=C/c2cccs2)c(C(=O)O)c(O)c1CC=C(C)C [Compound 1j, 2-hydroxy-3-isopentenyl-4-methoxy-6-[(E)-2-(thien-2-yl)ethenyl]benzoic acid] | 0.77 (≈ 2.24 µM) | 2.13 (≈ 6.18 µM) | 59.8 ± 7.7 |  | 27.7 ± 6.3 |  | > 0.27 | 1.02 (≈ 2.96 µM) |  | stronger anti-HIV, HCV viral activities | stronger anti-HIV, HCV viral activities |  |  |  |  |  |  | 
15 | COc1cc(/C=C/c2cc(OC)c(OC)c(OC)c2)c(C(=O)O)c(O)c1CC=C(C)C [Compound 1u, 2-hydroxy-3-isopentenyl-4-methoxy-6-[(E)-(3,4,5-trimethoxystyryl)]benzoic acid] | 0.84 (≈ 1.96 µM) | 0.14 (≈ 0.327 µM) | 90 ± 3.2 | the strongest activities | 89.3 ± 2.3 | the strongest activities | 0.21 (≈ 0.49 µM) | 0.16 (≈ 0.373 µM) | significantly stronger than the lead compound cajanine | stronger anti-HIV, HCV viral activities | stronger anti-HIV, HCV viral activities |  |  |  |  |  |  | 
16 | COc1cc(/C=C/c2ccccc2)c(C(=O)n2ccnc2)c(O)c1CC=C(C)C [Compound 22, (E)-(2-hydroxy-3-isopentenyl-4-methoxy-6-styrylphenyl)(1H-imidazol-1-yl)ketone] | 0.68 (≈ 1.75 µM) | 2.37 (≈ 6.1 µM) | 85.6 ± 1.6 |  | 87.8 ± 2.9 |  | 1.25 (≈ 3.22 µM) | 0.35 (≈ 0.901 µM) |  |  |  |  |  |  |  |  |  | 
17 | COC(=O)c1c(/C=C/c2c(OC)cccc2OC)cc(OC)c(CC=C(C)C)c1O [Compound 8d, methyl 2-hydroxy-3-isopentenyl-4-methoxy-6-[(E)-2,6-dimethoxystyryl]-benzoate] | 5.17 (≈ 12.5 µM) | > 9.26 | 84.4 ± 3.6 | the strongest activities | 82 ± 3.2 | the strongest activities | > 6.17 | 0.86 (≈ 2.08 µM) |  |  |  |  |  |  |  |  |  | 
18 | COc1cc(/C=C/CCc2ccccc2)cc(O)c1CC=C(C)C [Compound 10l, 2-isopentenyl-3-methoxy-5-[(E)-4′-phenylbuten-1′-yl]phenol] | 0.95 (≈ 2.95 µM) | > 18.2 | 84.6 ± 6.2 | the strongest activities | 81.3 ± 2.9 | the strongest activities | 0.65 (≈ 2.02 µM) | 2.2 (≈ 6.82 µM) | significantly stronger than the lead compound cajanine | stronger anti-HIV, HCV viral activities | stronger anti-HIV, HCV viral activities |  |  |  |  |  |  | 
